Values quoted from earlier work as cited in patent publication US20220339166A1, “POST COVID19 VACCINE REMEDIES” (priority 2021, published 2022).
Where two headings read alike, the source gives them in different places.

How the values were obtained:
ACE2 = ACE2 (Homo sapiens, UniProt Q9BYF1)
ODC = ODC (Homo sapiens, UniProt P11926)
mouse bone marrow = conditions: in vivo

ACE2, sequence (Q9BYF1 18-805): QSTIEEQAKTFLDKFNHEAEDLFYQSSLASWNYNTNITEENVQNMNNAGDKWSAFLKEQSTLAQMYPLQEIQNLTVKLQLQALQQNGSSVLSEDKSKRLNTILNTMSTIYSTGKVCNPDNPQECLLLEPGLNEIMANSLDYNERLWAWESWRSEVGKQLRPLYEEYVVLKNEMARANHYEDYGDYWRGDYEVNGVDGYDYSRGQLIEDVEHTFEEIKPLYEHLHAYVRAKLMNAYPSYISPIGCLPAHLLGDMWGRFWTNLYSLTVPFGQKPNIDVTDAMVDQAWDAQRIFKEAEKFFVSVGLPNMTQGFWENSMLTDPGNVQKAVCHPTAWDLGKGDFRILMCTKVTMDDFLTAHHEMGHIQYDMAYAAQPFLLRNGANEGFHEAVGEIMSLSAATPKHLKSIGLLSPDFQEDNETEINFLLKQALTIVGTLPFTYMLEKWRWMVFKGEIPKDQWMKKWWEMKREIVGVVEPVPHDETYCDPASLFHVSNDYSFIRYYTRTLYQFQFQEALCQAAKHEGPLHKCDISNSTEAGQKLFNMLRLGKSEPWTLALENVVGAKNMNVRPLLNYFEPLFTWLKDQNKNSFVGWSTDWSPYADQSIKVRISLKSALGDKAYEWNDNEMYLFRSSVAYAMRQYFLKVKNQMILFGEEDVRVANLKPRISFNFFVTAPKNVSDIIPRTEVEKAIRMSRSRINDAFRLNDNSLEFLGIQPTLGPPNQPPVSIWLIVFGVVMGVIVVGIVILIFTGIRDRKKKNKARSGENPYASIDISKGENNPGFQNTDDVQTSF
ODC, sequence (P11926 whole entry): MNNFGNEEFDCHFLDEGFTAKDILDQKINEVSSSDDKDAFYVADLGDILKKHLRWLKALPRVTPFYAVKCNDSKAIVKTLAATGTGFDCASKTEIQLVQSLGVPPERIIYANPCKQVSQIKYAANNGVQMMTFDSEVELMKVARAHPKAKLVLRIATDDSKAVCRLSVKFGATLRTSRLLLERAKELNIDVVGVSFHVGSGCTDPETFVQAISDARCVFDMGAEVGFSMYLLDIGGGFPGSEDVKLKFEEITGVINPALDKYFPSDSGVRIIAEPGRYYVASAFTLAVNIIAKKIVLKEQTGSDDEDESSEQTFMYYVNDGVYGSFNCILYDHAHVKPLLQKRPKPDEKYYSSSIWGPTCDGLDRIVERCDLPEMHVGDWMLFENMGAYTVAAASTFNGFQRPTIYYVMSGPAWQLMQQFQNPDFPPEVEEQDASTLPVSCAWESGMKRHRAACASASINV

In the case of `O=C([O-])O.[Na+]` [sodium bicarbonate], the “reduction of ACE2 affinity and interference with fusion domain for S1 spike protein” value (ACE2) is listed as 17%.
For `NCCCC[C@H](N)C(=O)O` [lysine], the “reduction of ACE2 affinity and interference with fusion domain for S1 spike protein” value (ACE2) is given as 10%.
For `NCCCC(N)(C(=O)O)C(F)F` (stereo not drawn) [DFMO], the “stalls DNA synthesis” value (ODC) is given as 70-80%.
For `CC1CS(=O)(=O)CCN1/N=C/c1ccc([N+](=O)[O-])o1` (stereo not drawn) [nifurtimox], the effective in curing (Trypanosoma cruzi; in vivo) is given as ~100%.
For `O=C(Cn1ccnc1[N+](=O)[O-])NCc1ccccc1` [benznidazole], the effective in curing (Trypanosoma cruzi; given soon after infection, at the onset of the acute phase) is given as ~100%.
For `NCCS` [Cysteamine], the DNA synthesis (mouse bone marrow) is given as “inhibits DNA synthesis”.
